Results from article PMC9865188 (Pharmaceutics, 2023).
Where two headings read alike, the source gives them in different places.

Key:
[1] = Pharmacokinetic study in Sprague Dawley rats (oral gavage); type: in vivo; conditions: for concentration at 15 min / Cmax / AUC(0-t) / bioavailability / half-life: male, rat, plasma; for concentration at 15 min / Cmax: Sprague Dawley; for concentration at 15 min: oral, Etoposide C15min; for Cmax / AUC(0-t) / bioavailability / half-life: po; for Cmax: Etoposide Cmax; for AUC(0-t) / bioavailability / half-life: Sprague-Dawley; for AUC(0-t): Etoposide AUC0–6h; for bioavailability: Etoposide bioavailability; for half-life: Etoposide t½
Protocol: The study was conducted according to the European Convention for the Protection of Vertebrate Animals used for Experimental and other Scientific Purposes (ETS no. 123) and Belgian law controlling the experiments on animals (Royal Decree of 29 May 2013 for the protection of laboratory animals). Animals were allowed minimum five days to acclimatise upon arrival from the supplier, and they were housed in polysulphone cages (58 × 52 × 20 cm) in groups of six provided with wooden sticks for enrichment. Animals had free access to Safe 04 Maintenance Diet (Safe, Rosenberg, Germany) and water during acclimatisation and during the study.
Male Sprague Dawley rats (Charles River, Dortmund, Germany) weighing 293–358 g were randomly assigned into six groups of six animals. Formulations were prepared as clear solutions in 40% v/v ethanol–water and 10 mL/kg was administered to each animal by oral gavage. […] Plasma samples were taken by tail vein puncture with a needle followed by collection in 32–64 µL micro haematocrit tubes (Vitrex Medical, Herlev, Denmark) at times 15, 30, and 45 min and 1, 2, 3, 4, and 6 h. Samples were centrifuged, and plasma was transferred into 10 µL end-to-end pipettes (Vitrex Medical, Herlev, Denmark) and immediately frozen at −80 °C until bioanalysis. Immediately after the study, animals were euthanised according to the principles of euthanasia stated in the AVMA Guidelines for the Euthanasia of Animals (American Veterinary Medical Association, 2020). Plasma samples were analysed by a previously described qualified LC-MS/MS method.
Pharmacokinetic parameters were calculated individually for each animal subject and pooled for statistical analysis. The plasma concentration at 15 min (C15min) was reported as an average of the plasma concentration of the six animals in each group. […] Elimination rate constants (ke) were calculated by linear regression of the linear part of the ln(plasma concentration) versus time profiles, and plasma half-life (t½) was calculated from ke:(3) t½=ln (2)/ke

[2] = cited from earlier work
P-gp = P-gp (Homo sapiens, UniProt P08183); assay: Transcellular etoposide permeability across Caco-2 cell monolayers; conditions: Caco-2, spike method, 2.5 nM zosuquidar vs 2.5 nM zosuquidar + 0.2 µM polysorbate 20
Protocol: All were carried out in four independent cell passages. Transcellular permeability studies were performed in HEPES HBSS pH 7.4 and were assessed in the basolateral (B) to apical (A) and A–B direction for series (1) and (3) and in the B–A direction for series (2). […] Test solutions were either prepared by conventional serial dilution for series (1)–(2) or by a spike method for series (3).
Before the transport experiment, growth medium was removed from the cells by vacuum suction (Vacusip, Integra Biosciences, NH, USA), followed by a 10 min equilibration in HEPES HBSS pH 7.4 on a Talboys 1000 MP incubating microplate shaker (Troemner, NJ, USA, 220 rpm, 37 °C). Then, the buffer was removed, and donor and acceptor solutions were added, with a total of 500 and 1000 µL to the A and B compartment, respectively. […] At 120 min, a sample was taken from the donor compartment and diluted in mobile phase. Samples were analysed by HPLC-FL, and for series (2) and (3), 50 µL sample was transferred to a black, clear-bottom 96-well plate for lucifer yellow quantification.
Papp was calculated by dividing the flux with the measured donor concentration.

[3] = group B: etoposide 20 mg/kg + zosuquidar 0.63 mg/kg + 1.0% v/v polysorbate 20 oral
[4] = group D: etoposide 20 mg/kg + zosuquidar 2.0 mg/kg + 5.0% v/v polysorbate 20 oral
[5] = group E: etoposide 20 mg/kg + zosuquidar 6.3 mg/kg + 5.0% v/v polysorbate 20 oral
[6] = group F: etoposide 20 mg/kg + zosuquidar 6.3 mg/kg + 10% v/v polysorbate 20 oral
[7] = 20 mg/kg, group A: etoposide 20 mg/kg + 1.0% v/v polysorbate 20 oral
[8] = 20 mg/kg, group C: etoposide 20 mg/kg + 5.0% v/v polysorbate 20 oral
[9] = 20 mg/kg, group B: etoposide 20 mg/kg + zosuquidar 0.63 mg/kg + 1.0% v/v polysorbate 20 oral
[10] = 20 mg/kg, group D: etoposide 20 mg/kg + zosuquidar 2.0 mg/kg + 5.0% v/v polysorbate 20 oral
[11] = 20 mg/kg, group E: etoposide 20 mg/kg + zosuquidar 6.3 mg/kg + 5.0% v/v polysorbate 20 oral
[12] = 20 mg/kg, group F: etoposide 20 mg/kg + zosuquidar 6.3 mg/kg + 10% v/v polysorbate 20 oral
[13] = group D*: etoposide 20 mg/kg oral alone
[14] = group F*: etoposide 20 mg/kg + zosuquidar 0.63 mg/kg oral
[15] = group G*: etoposide 20 mg/kg + zosuquidar 2.0 mg/kg oral
[16] = group H*: etoposide 20 mg/kg + zosuquidar 6.3 mg/kg oral

P-gp, sequence (P08183 whole entry): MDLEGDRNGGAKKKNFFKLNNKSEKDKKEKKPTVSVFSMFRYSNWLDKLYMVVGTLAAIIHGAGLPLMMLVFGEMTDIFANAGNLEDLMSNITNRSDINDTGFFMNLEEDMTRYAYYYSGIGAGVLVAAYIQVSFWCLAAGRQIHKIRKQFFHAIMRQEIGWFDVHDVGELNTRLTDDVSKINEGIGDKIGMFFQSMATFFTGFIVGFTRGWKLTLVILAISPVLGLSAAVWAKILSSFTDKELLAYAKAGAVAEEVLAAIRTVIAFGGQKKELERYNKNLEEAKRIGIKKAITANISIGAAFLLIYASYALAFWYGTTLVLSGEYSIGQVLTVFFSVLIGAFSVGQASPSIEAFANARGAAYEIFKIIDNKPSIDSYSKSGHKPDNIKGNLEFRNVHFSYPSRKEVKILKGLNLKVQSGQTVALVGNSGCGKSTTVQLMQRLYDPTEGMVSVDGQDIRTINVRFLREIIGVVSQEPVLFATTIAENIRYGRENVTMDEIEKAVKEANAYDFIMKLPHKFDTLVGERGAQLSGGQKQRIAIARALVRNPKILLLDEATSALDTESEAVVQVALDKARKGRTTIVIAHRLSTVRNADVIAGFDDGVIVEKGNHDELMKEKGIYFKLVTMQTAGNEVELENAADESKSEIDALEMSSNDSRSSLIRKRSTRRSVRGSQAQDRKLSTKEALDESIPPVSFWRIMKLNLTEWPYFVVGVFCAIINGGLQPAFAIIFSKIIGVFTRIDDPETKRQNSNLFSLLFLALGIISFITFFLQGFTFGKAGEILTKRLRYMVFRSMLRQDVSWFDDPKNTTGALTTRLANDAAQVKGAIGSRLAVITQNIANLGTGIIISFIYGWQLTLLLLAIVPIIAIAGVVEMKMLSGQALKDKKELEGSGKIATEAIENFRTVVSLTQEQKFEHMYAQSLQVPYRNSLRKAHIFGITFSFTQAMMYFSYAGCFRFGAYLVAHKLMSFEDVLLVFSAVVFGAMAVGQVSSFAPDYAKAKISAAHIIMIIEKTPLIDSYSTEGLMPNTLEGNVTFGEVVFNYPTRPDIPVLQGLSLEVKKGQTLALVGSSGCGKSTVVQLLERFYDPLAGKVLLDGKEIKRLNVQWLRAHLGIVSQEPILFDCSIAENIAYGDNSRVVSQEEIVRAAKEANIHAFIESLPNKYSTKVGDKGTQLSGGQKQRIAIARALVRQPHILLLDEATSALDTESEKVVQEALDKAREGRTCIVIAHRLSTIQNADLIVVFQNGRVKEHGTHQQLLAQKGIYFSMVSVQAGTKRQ

Etoposide tmax, median [Q1; Q3] ([1]; group A: etoposide 20 mg/kg + 1.0% v/v polysorbate 20 oral): 30 [30;34] min
Etoposide tmax, median [Q1; Q3] [1, 3]: 45 [30;49] min
Etoposide tmax, median [Q1; Q3] ([1]; group C: etoposide 20 mg/kg + 5.0% v/v polysorbate 20 oral): 30 [26;30] min
Etoposide tmax, median [Q1; Q3] [1, 4]: 38 [30;60] min
Etoposide tmax, median [Q1; Q3] [1, 5]: 45 [41;49] min
Etoposide tmax, median [Q1; Q3] [1, 6]: 45 [41;60] min
Etoposide t½ [1, 6]: 56.4 ± 2.2 min
concentration at 15 min [1, 7]: 404 ± 58 ng/mL
concentration at 15 min [1, 8]: 1130 ± 140 ng/mL
concentration at 15 min [1, 3]: 1140 ± 120 ng/mL
concentration at 15 min [1, 4]: 1010 ± 100 ng/mL
concentration at 15 min [1, 5]: 923 ± 103 ng/mL
concentration at 15 min [1, 6]: 579 ± 52 ng/mL
Cmax [1, 7]: 711 ± 86 ng/mL
Cmax [1, 9]: 1750 ± 160 ng/mL
Cmax [1, 8]: 1220 ± 140 ng/mL
Cmax [1, 10]: 1430 ± 180 ng/mL
Cmax [1, 11]: 1300 ± 130 ng/mL
Cmax [1, 12]: 1020 ± 70 ng/mL
AUC(0-t) [1, 7]: 921 ± 84 ng·h/mL
AUC(0-t) [1, 9]: 2610 ± 240 ng·h/mL
AUC(0-t) [1, 8]: 1970 ± 240 ng·h/mL
AUC(0-t) [1, 10]: 3080 ± 380 ng·h/mL
AUC(0-t) [1, 11]: 2800 ± 200 ng·h/mL
AUC(0-t) [1, 12]: 2310 ± 160 ng·h/mL
bioavailability [1, 7]: 5.35 ± 0.49%
bioavailability [1, 9]: 15.2 ± 1.4%
bioavailability [1, 8]: 11.5 ± 1.4%
bioavailability [1, 10]: 17.9 ± 2.2%
bioavailability [1, 11]: 16.3 ± 1.2%
bioavailability [1, 12]: 13.4 ± 1%
half-life [1, 7]: 42.4 ± 2.4 min
half-life [1, 9]: 37.2 ± 1.2 min
half-life [1, 8]: 43.3 ± 2 min
half-life [1, 10]: 52.9 ± 2.8 min
half-life [1, 11]: 54.7 ± 4.5 min
difference in mean etoposide Papp (P-gp): no difference
SMILES: COc1cc([C@@H]2c3cc4c(cc3[C@@H](O[C@@H]3O[C@@H]5CO[C@@H](C)O[C@H]5[C@H](O)[C@H]3O)[C@H]3COC(=O)[C@H]23)OCO4)cc(OC)c1O [etoposide]
Etoposide AUC0–6h [2, 13]: 947 ± 156 ng·h/mL
Etoposide Cmax [2, 13]: 390 ± 84 ng/mL
Etoposide bioavailability [2, 13]: 5.51 ± 0.91%
Etoposide tmax, median [Q1; Q3] [2, 13]: 15 [15;30] min
Etoposide t½ [2, 13]: 80.8 ± 13.2 min
Etoposide AUC0–6h [2, 14]: 2470 ± 440 ng·h/mL
Etoposide Cmax [2, 14]: 1590 ± 290 ng/mL
Etoposide bioavailability [2, 14]: 14.4 ± 2.5%
Etoposide tmax, median [Q1; Q3] [2, 14]: 45 [15;45] min
Etoposide t½ [2, 14]: 39.3 ± 3.0 min
Etoposide AUC0–6h [2, 15]: 3860 ± 500 ng·h/mL
Etoposide Cmax [2, 15]: 2240 ± 540 ng/mL
Etoposide bioavailability [2, 15]: 22.4 ± 2.9%
Etoposide tmax, median [Q1; Q3] [2, 15]: 38 [26;60] min
Etoposide t½ [2, 15]: 51.4 ± 2.4 min
Etoposide AUC0–6h [2, 16]: 4270 ± 470 ng·h/mL
Etoposide Cmax [2, 16]: 2110 ± 200 ng/mL
Etoposide bioavailability [2, 16]: 24.8 ± 2.7%
Etoposide tmax, median [Q1; Q3] [2, 16]: 45 [15;60] min
Etoposide t½ [2, 16]: 56.5 ± 4.8 min
